The results in this text go back to ChEMBL document CHEMBL1150096, “Synthesis and evaluation of 3',5'-di-tert-butyl-4'-hydroxyflavones as potential inhibitors of low density lipoprotein (LDL) oxidation” (J Nat Prod, 1995).

Assay [1] can be described thus: Antioxidant activity assessed as inhibition of copper-induced human LDL oxidation. Type of assay: functional.
Assay [2] is described as follows: Antioxidant activity assessed as inhibition of endothelial cell-induced human LDL oxidation. Type of assay: functional, cell-based.

What is called IC50 is the midpoint of a concentration-inhibition curve. For the compound `CC(C)(C)c1cc(-c2cc(=O)c3ccc(OCC(=O)N4CCCCC4)cc3o2)cc(C(C)(C)C)c1O`, in assay [1], the IC50 is 3000 nM. Still for that read-out and setting: with `CC(C)(C)c1cc(-c2cc(=O)c3ccc(OCC(=O)N4CCN(Cc5ccccc5)CC4)cc3o2)cc(C(C)(C)C)c1O` the figure was 3000 nM. The same measure, in the same setting: with `O=c1cc(-c2ccc(O)cc2)oc2cc(O)ccc12` the figure was more than 100000 nM; with `Cc1cc(C(C)(C)C)c(O)c(C(C)(C)C)c1` [BUTYLATED HYDROXYTOLUENE], 3000 nM. As for `CC(C)(C)c1cc(-c2cc(=O)c3ccc(OCCN4CCOCC4)cc3o2)cc(C(C)(C)C)c1O`, the concentration for half-maximal inhibition (IC50) in assay [2] and in assay [1] was 800 nM in each case. Consider `CCN(CC)C(=O)COc1ccc2c(=O)cc(-c3cc(C(C)(C)C)c(O)c(C(C)(C)C)c3)oc2c1`, for which the IC50 in assay [1] stood at 3000 nM. Regarding `CC(C)(C)c1cc(-c2cc(=O)c3ccc(OCc4ccc5ccccc5n4)cc3o2)cc(C(C)(C)C)c1O`, the IC50 in assay [1] worked out at 3000 nM.

As to `CC(C)(C)c1cc(-c2cc(=O)c3ccc(OCCO)cc3o2)cc(C(C)(C)C)c1O`, the IC50 in assay [1] worked out at 3000 nM. As to `CCOC(=O)COc1ccc2c(=O)cc(-c3cc(C(C)(C)C)c(O)c(C(C)(C)C)c3)oc2c1`, the IC50 in assay [2] is 800 nM; in assay [1], 3000 nM.

On to `COc1ccc2c(=O)cc(-c3cc(C(C)(C)C)c(O)c(C(C)(C)C)c3)oc2c1`, for which the IC50 in assay [1] was determined as 1000 nM. Take `CCOC(=O)C(C)(C)Oc1ccc2c(=O)cc(-c3cc(C(C)(C)C)c(O)c(C(C)(C)C)c3)oc2c1`: the IC50 in assay [2] was determined as 500 nM; in assay [1], 3000 nM. For `CC(C)(C)c1cc(-c2cc(=O)c3ccc(O)cc3o2)cc(C(C)(C)C)c1O`, in that order: 2000 nM and 1000 nM. In the case of `CN(C)CCCOc1ccc2c(=O)cc(-c3cc(C(C)(C)C)c(O)c(C(C)(C)C)c3)oc2c1`, the IC50 in assay [1] was determined as 700 nM. The same measure, in the same setting: with `CCCCCOC(=O)COc1ccc2c(=O)cc(-c3cc(C(C)(C)C)c(O)c(C(C)(C)C)c3)oc2c1` the figure was 5000 nM.

For the compound `CN(C)CCOc1ccc2c(=O)cc(-c3cc(C(C)(C)C)c(O)c(C(C)(C)C)c3)oc2c1`, the IC50 in assay [1] amounted to 700 nM.

On to `O=c1cc(-c2ccc(O)cc2)oc2cc(O)cc(O)c12` [APIGENIN], for which, in assay [1], the IC50 is more than 100000 nM.

As to `CC(C)(C)c1cc(-c2cc(=O)c3ccc(OCC(=O)O)cc3o2)cc(C(C)(C)C)c1O` [listing 1 of 2 here], the IC50 was 500 nM in assay [2] and 3000 nM in assay [1]. As to `CC(C)(C)c1cc(-c2cc(=O)c3ccc(OCc4ccc(Cl)cc4)cc3o2)cc(C(C)(C)C)c1O`, the IC50 in assay [1] worked out at 7000 nM. Still for that read-out and setting: with `COc1ccc2c(=O)cc(-c3cc(C(C)(C)C)c(OC)c(C(C)(C)C)c3)oc2c1` the figure was more than 100000 nM.

For the compound `CCCCCCOc1ccc2c(=O)cc(-c3cc(C(C)(C)C)c(O)c(C(C)(C)C)c3)oc2c1`, the IC50 was determined as 50000 nM in assay [2] and 5000 nM in assay [1]. With `CCOC(=O)CCCCOc1ccc2c(=O)cc(-c3cc(C(C)(C)C)c(O)c(C(C)(C)C)c3)oc2c1`, the IC50 in assay [1] came to 3000 nM. Same read-out and setting: with `CC(C)(C)c1cc(-c2cc(=O)c3ccc(OCC(=O)O)cc3o2)cc(C(C)(C)C)c1O` [listing 2 of 2 here] the figure was 100 nM; with `CC(C)(C)c1cc(-c2cc(=O)c3ccc(OCC(O)CO)cc3o2)cc(C(C)(C)C)c1O` (stereo not drawn), 100 nM.

For the compound `CC(C)(C)c1cc(-c2cc(=O)c3ccc(OCCCS(=O)(=O)O)cc3o2)cc(C(C)(C)C)c1O`, the 50% inhibitory concentration (IC50) in assay [1] was 500 nM.

With VITAMIN E, the IC50 in assay [2] was 4000 nM; in assay [1] it was more than 100000 nM. Consider `CC(C)(C)c1cc(C(=O)Oc2ccc3c(=O)cc(-c4cc(C(C)(C)C)c(O)c(C(C)(C)C)c4)oc3c2)cc(C(C)(C)C)c1O`, for which the IC50 in assay [2] amounted to 70000 nM; in assay [1] it was 30000 nM.

Take `CC(C)(Sc1cc(C(C)(C)C)c(O)c(C(C)(C)C)c1)Sc1cc(C(C)(C)C)c(O)c(C(C)(C)C)c1` [PROBUCOL]: the values for the IC50 in assay [2] and in assay [1] were 4000 nM and 3000 nM, respectively. The matching figures for `CC(C)(C)c1cc(-c2cc(=O)c3ccccc3o2)cc(C(C)(C)C)c1O`: 2500 nM and 3000 nM.
